According to US6552060B1, “Asymmetric disulfides and methods of using same” (Prolx Pharmaceuticals, Inc., priority 1997, dated 2003):
Values joined by “and” are separate entries in the source; they are usually repeats but may differ in a detail not shown here. Equal values may be shown once. “Also recorded” adds a separate entry of the source. Read-outs that look alike come from different tables or passages of the source. Marks after values point to notes of the source that are not given here.

B1: thioredoxin: low molecular weight redox protein; human recombinant thioredoxin stimulates proliferation of cancer cells (protein, UniProt P10599 2-105, looked up)
Thioredoxin: VKQIESKTAFQEALDAAGDKLVVVDFSATWCGPCKMIKPFFHSLSEKYSNVIFLEVDVDDCQDVASECEVKCMPTFQFFKKGQKVGEFSGANKEKLEATINELV

What was measured:
[1] = system: EMT6 mouse mammary tumor cells; details: 48 h
in vitro = details: mouse
TR/Trx = molecular target: T1, TR/Trx (Homo sapiens, UniProt Q16881); test: Thioredoxin dependent reduction of insulin by human thioredoxin reductase and NADPH (IC50 TR/Trx, 96 well); assay type: biochemical
T1 sequence (Q16881 1-499 isoform Q16881-5): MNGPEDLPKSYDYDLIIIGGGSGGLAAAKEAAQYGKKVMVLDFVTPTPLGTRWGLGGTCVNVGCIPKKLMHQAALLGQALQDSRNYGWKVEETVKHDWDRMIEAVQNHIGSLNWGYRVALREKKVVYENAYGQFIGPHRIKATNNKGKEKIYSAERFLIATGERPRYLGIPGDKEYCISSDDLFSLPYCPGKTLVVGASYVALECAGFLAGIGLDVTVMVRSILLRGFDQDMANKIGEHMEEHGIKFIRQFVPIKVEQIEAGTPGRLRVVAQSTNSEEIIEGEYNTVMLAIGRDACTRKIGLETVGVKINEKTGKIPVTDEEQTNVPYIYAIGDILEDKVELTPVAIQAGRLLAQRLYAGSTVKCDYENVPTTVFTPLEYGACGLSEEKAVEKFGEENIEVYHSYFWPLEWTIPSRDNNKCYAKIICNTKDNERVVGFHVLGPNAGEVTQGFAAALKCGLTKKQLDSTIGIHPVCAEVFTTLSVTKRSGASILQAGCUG
Description: When referring to the particular system being analyzed IC50 is typically followed by an abbreviation referring to that system (i.e., IC50 TR/Trx for the above described thioredoxin redox system which is comprised of thioredoxin reductase and thioredoxin).
A second plate was used for the assessment of biological activity or as a biological screen. Aliquots of disulfides dissolved in DMSO, were be transferred into 96 well plates. The assay to assess their ability to inhibit thioredoxin reductase measures the thioredoxin dependent reduction of insulin by human thioredoxin reductase and NADPH. The effects of the disulfides on the reduction of Trx by TR were measured spectrophotometrically by following the reduction of NADPH at 339 nm with insulin as the final electron acceptor in a buffered mixture of TR, Trx, NADPH and insulin.

[2] = molecular target: T2, Human placental thioredoxin reductase (Homo sapiens, UniProt Q16881); test: NADPH oxidation by thioredoxin reductase with the disulfide as substrate, or with thioredoxin and insulin as final electron acceptor and the disulfide as inhibitor; assay type: biochemical; details: for Type: behaviour towards thioredoxin reductase: substrate, inhibitor or non-reactive
T2 sequence (Q16881 1-499 isoform Q16881-5): T1 sequence (Q16881 1-499 isoform Q16881-5)
Procedure: The thioredoxin was stored at −20° C. with 5 mM dithiothreitol which was removed before use with a desalting column (PD10, Pharmacia, Uppsala, Sweden).
Asymmetrical 2-imidazolyl disulfides which were used as a basis for further development and identified below in Table 1. In Table I, NADPH oxidation by thioredoxin reductase was measured spectrophotometrically as described with either the disulfide as the electron acceptor (substrate) or with thioredoxin and insulin as the final electron acceptor and the disulfide as inhibitors. The reactions were initiated by the addition of NADPH. Km and Ki values were calculated from Lineweaver-Burk plots of the data.
The compounds of Table 1 were synthesized by a method described previously and recrystallized prior to use. Stock solutions of the disulfides were prepared at 10 mM in ethanol and diluted in aqueous media just prior to use. N-ethylmaleimide (NEM), diamide, and DTT were obtained from Sigma Chemical Co. (St. Louis, Mo.). All other chemicals used were of reagent grade. […]

[3] = system: MCF-7 human breast cancer cells; test: Thioredoxin and serum dependent growth of MCF-7 cells; assay type: cell-based; details: 48 hr
Procedure: MCF-7 human breast cancer cells were obtained from the American Tissue Type Collection (Rockville, Md.). Cultures were maintained in Dulbecco's Modified Eagles' medium (DMEM) containing 10% fetal bovine serum (fbs) at 37° C. and 6% CO2, and passaged at 75% confluence using 0.025% trypsin. The effect of the disulfides on cell proliferation was measured as previously described and incorporated herein by reference. Briefly, 10^5 cells were plated in a 35 mm culture dish in the above medium and, after attachment for 24 hr, their growth was arrested by changing to DMEM with 0.5% fbs for 48 hr. The medium was then replaced with DMEM containing 10% fbs or 1 μM thioredoxin, with or without the disulfides. The cell number was measured 2 days later following detachment with 0.025% trypsin using a hemocytometer.
The effects of the disulfides on the growth of human MCF-7 breast cancer cells is shown graphically in FIG. 1. […] The cells were growth arrested in medium with 0.5% serum for 48 hr at which time there were 0.2×10^6 cells. DMEM with 1 mM thioredoxin (open symbols) or 10% serum (filled symbols) was added and the increase in cell number over a 48 hr period was measured in the presence of various concentrations of the disulfides. Values are means±SEM. n=6.

thioredoxin = molecular target: T3, thioredoxin (Homo sapiens, UniProt P10599); test: Direct reaction between thioredoxin and disulfides, release of 2-mercaptoimidazole at 252 nm; assay type: biochemical; details: thioredoxin 2 μM, disulfide 200 μM, pH 7.4, room temperature
T3 construct: made in house; host or cells: E. coli
T3 sequence (P10599 1-105): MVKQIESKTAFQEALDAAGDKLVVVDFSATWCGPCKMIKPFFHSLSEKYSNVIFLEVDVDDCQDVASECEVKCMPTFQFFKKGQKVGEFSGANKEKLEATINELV
Procedure: The effects of the assymetric disulfides of Table I on the reduction of thioredoxin and C73S by thioredoxin reductase was measured spectrophotometrically by following the reduction of NADPH at 339 nm. […] In some studies the disulfides at 3.5 μM were preincubated for up to 24 hr at room temperature in air with 0.7 μM thioredoxin or C73S in 100 μM HEPES buffer, pH 7.6, and 5 mM EDTA, before measuring the reduction of the thioredoxin or C73S by thioredoxin reductase with 1 mg/ml bovine insulin as the final electron acceptor. The ability of the disulfides to act as substrates for glutathione reductase was measured by following the reduction of NADPH using an incubation mixture containing 0.15 μg/ml glutathione reductase, 140 μM NADPH, 100 mM HEPES buffer, pH 7.6, 5 mM EDTA and the disulfides at 500 μM. The ability of the disulfides to act as inhibitors of glutathione reductase was measured using oxidized glutathione, 50 μM, as the final electron acceptor. In both cases the reaction was initiated by the addition of NADPH. Thioredoxin or C32S/C35S, 2 μM, in 0.1 M sodium phosphate buffer, pH 7.4, was reacted with the disulfides at a concentration of 200 μM at room temperature. This direct reaction between thioredoxin and the disulfides was followed spectrophotometrically as the increase in absorbance at 252 nm due to release of 2-mercaptoimidazole. Initial reaction rates were measured in triplicate.
Due to the fact that the disulfides inhibited thioredoxin-dependent cell growth at concentrations below those required to inhibit thioredoxin reductase, a direct effect of the disulfides on thioredoxin was looked for. The initial reaction between the disulfides and thioredoxin was measured spectrophotometrically (FIGS. 2A and 2B). […] This is the order of reactivity which be predicted from the steric and electronic nature of the disulfides thioalkylating groups.

[4] = system: MCF-7 breast cancer cells in scid mice; test: Activity against MCF-7 breast cancer cells in scid mice; assay type: in vivo; details: for T/C %: tumor volume treated versus control at day 28
Description: This is shown below in Table II.

HL60 cells = test: Induction of apoptosis in HL60 cells; assay type: cell-based, human; details: within 8 h of exposure, same concentration
human primary tumors = test: Growth of human primary tumors in soft agarose; assay type: cell-based
[5] = system: thioredoxin transfected MCF-7 cells; test: Apoptosis in MCF-7 cells transfected with human thioredoxin cDNA; details: 30 μM, apoptosis measured 48 h later
[6] = system: MCF-7 breast cancer cells; details: read-out: EC50 for growth stimulation; cited from earlier work
[7] = MCF7, in the presence of 1 μM thioredoxin, read-out: IC50 thioredoxin dependent proliferation
[8] = MCF7, with 10% fetal bovine serum, read-out: IC50 serum dependent growth

Molecule	IC50 [1] [µM]	IC50 at 48 h (in vitro) [µM]	Type [2]	IC50 [3, 7] [µM]	IC50 [3, 8] [µM]	initial rate for reaction between thioredoxin and disulfide (thioredoxin) [M/s]	apoptosis of HL60 cells (HL60 cells)	further results
CC(C)SSCc1ccccc1 [Compound E-19]	25	42	–	–	–	–	–	–
CCC(C)SSc1ncnc2[nH]cnc12 (centres unmarked) [Compound F-7]	> 180	> 180	–	–	–	–	–	IC50 (TR/Trx; Table 3, read-out: IC50 TR/Trx (converted)): 95.7 µM
CCC(C)SSc1ncc[nH]1 (centres unmarked) [IV-2, 1-methylpropyl 2-imidazolyl disulfide]	–	19	competitive inhibitors; also recorded: inhibitor	1.2	3.2	2.8e-07	stimulated to apoptose	T/C % ([4]; 5 mg/kg/day i.p. for 14 days): 56.7%; T/C % ([4]; 10 mg/kg/day i.p. for 14 days): 45.9^c %; T/C % ([4]; 15 mg/kg/day i.p. for 14 days): 2.3^c %; tumor inhibition ([4]; MCF-7 tumor system): 98%; growth of human primary tumors in soft agarose (human primary tumors): inhibited; apoptosis induced in thioredoxin transfected cells [5]: became resistant to apoptosis
CCCCSSc1ncc[nH]1 [III-2, n-butyl 2-imidazolyl disulfide]	–	12	substrate	0.2	35	7.3e-07	stimulated to apoptose	Km ([2]; disulfide as substrate for reduction by thioredoxin reductase, Lineweaver-Burk): 43 µM and 43.1 µM; Toxicity dead/injected ([4]; 6 mg/kg/day i.p. for 14 days): 0/8; T/C % ([4]; 6 mg/kg/day i.p. for 14 days): 48.9^c %; Toxicity dead/injected ([4]; 12 mg/kg/day i.p. for 14 days): 0/8; T/C % ([4]; 12 mg/kg/day i.p. for 14 days): 56.6^c %; Toxicity dead/injected ([4]; 18 mg/kg/day i.p. for 14 days): 1/8; T/C % ([4]; 18 mg/kg/day i.p. for 14 days): 100.2%; IC50 (TR/Trx; Table 4, read-out: Disulfide inhibition of TR/Trx (IC50 TR/Trx) (converted)): 117 µM
B1	–	–	–	–	–	–	–	EC50 [6]: 0.35 µM
